Several values for one entry are separate records, joined by “and”; a condition that tells them apart may be missing. Equal entries are not always repeated.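 Growth conditions: 96-well plates. Treatment: test compound, 48 hours, 5 concentrations. Analysis: linear interpolation between bracketing concentrations; unreached endpoints set to highest concentration. GI50 marks 50% less growth. Definition used: TGI = concentration required for complete inhibition of growth.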
Assays:
Experiment in all cases: NCI anticancer screen, dose series, 48 h
M14 melanoma = system: M14 melanoma
SNB-78 CNS = system: SNB-78 CNS
M19-MEL melanoma = system: M19-MEL melanoma
DMS 273 small cell lung = system: DMS 273 small cell lung
XF 498 CNS = system: XF 498 CNS
DLD-1 colon = system: DLD-1 colon
DMS 114 small cell lung = system: DMS 114 small cell lung
LXFL 529 NSCLC = system: LXFL 529 NSCLC
KM20L2 colon = system: KM20L2 colon
MDA-N = system: MDA-N
RXF-631 renal = system: RXF-631 renal
HOP-18 NSCLC = system: HOP-18 NSCLC

SMILES: CC1(C)N=C(N)N=C(N)N1c1cccc(CCCCc2cccc(S(=O)(=O)F)c2)c1
- GI50 (M14 melanoma): 2.92 µM
- TGI (M14 melanoma): > 100 µM

SMILES: Cc1ccc2c(c1)C(C)Cc1c(ncnc1-n1cnc3ccccc31)N2C (stereo not given)
- GI50 (M14 melanoma): 0.242 µM
- TGI (M14 melanoma): 15.7 µM

SMILES: CN(C)CCOc1ccc(-c2nc(-c3ccc4c(c3)CC/C4=N\O)c(-c3ccncc3)[nH]2)cc1
- GI50 (M14 melanoma): 0.0258 µM and 0.054 µM
- TGI (M14 melanoma): 2.14 µM and 3.69 µM

SMILES: O=C(Nc1ccccc1-c1n[nH]c(=S)[nH]c1=O)C(F)(F)F
- TGI (SNB-78 CNS): > 100 µM
- TGI (M19-MEL melanoma): > 100 µM
- TGI (DMS 273 small cell lung): > 100 µM
- TGI (XF 498 CNS): > 100 µM
- TGI (DLD-1 colon): > 100 µM
- TGI (DMS 114 small cell lung): > 100 µM
- TGI (M14 melanoma): > 100 µM
- TGI (LXFL 529 NSCLC): > 100 µM

SMILES: CCOc1ccccc1NC(=O)CC1C(=O)Nc2ccccc2S1=O (stereo not given)
- TGI (SNB-78 CNS): > 100 µM
- TGI (M19-MEL melanoma): > 100 µM
- TGI (DMS 273 small cell lung): > 100 µM
- TGI (XF 498 CNS): > 100 µM
- TGI (DLD-1 colon): > 100 µM
- TGI (DMS 114 small cell lung): > 100 µM
- TGI (KM20L2 colon): > 100 µM
- TGI (M14 melanoma): > 100 µM
- TGI (LXFL 529 NSCLC): > 100 µM

SMILES: COc1ccc2oc(=O)cc(C(c3ccc[nH]3)c3ccc[nH]3)c2c1
- GI50 (M14 melanoma): 0.0837 µM
- TGI (M14 melanoma): 0.191 µM

SMILES: Clc1ncnc(Cl)c1Cl
- TGI (MDA-N): > 100 µM
- TGI (M14 melanoma): > 100 µM

SMILES: CC(=O)N[C@@H](Cc1ccc(OP(=O)(O)O)cc1)C(=O)N[C@H]1CCC(=O)N2CCC[C@@H](C(=O)NCc3ccc(Cl)cc3)N2C1=O
- GI50 (M14 melanoma): > 25 µM
- TGI (M14 melanoma): > 25 µM

SMILES: CS/C(=N\C(=S)N(C)C)N(c1ccccc1)c1nc(=[N+](C)C)ss1
- TGI (SNB-78 CNS): 92.8 µM
- TGI (M19-MEL melanoma): 14.8 µM
- TGI (DMS 273 small cell lung): 15.4 µM
- TGI (DMS 114 small cell lung): 2.28 µM
- TGI (KM20L2 colon): 50.3 µM
- TGI (M14 melanoma): 16.7 µM
- TGI (LXFL 529 NSCLC): 15.9 µM

SMILES: O=C(/C=C/c1ccc(OCCCOc2ccc(/C=C/C(=O)c3ccccc3)cc2)cc1)c1ccccc1
- TGI (M19-MEL melanoma): > 100 µM
- TGI (DMS 273 small cell lung): > 100 µM
- TGI (RXF-631 renal): > 100 µM
- TGI (DLD-1 colon): > 100 µM
- TGI (DMS 114 small cell lung): > 100 µM
- TGI (KM20L2 colon): > 100 µM
- TGI (M14 melanoma): > 100 µM
- TGI (LXFL 529 NSCLC): > 100 µM

SMILES: COc1ccc(OC)c(/C=N/NC(=O)Cc2csc3nc(-c4ccc(Br)cc4)cn23)c1
- GI50 (M14 melanoma): 15.1 µM
- TGI (M14 melanoma): 72.1 µM

SMILES: O=C(O)C/C(=C\c1ccco1)C(=O)O
- TGI (MDA-N): > 100 µM
- TGI (M14 melanoma): > 100 µM

SMILES: CC(C)[C@]12O[C@H]1[C@@H]1O[C@]13[C@]1(O[C@H]1C[C@H]1C4=C(CC[C@@]13C)C(=O)OC4)[C@@H]2O
- TGI (MDA-N): 0.0238 µM
- GI50 (M14 melanoma): 0.0158 µM
- TGI (M14 melanoma): 0.0312 µM and 0.0361 µM

SMILES: CC[C@]1(O)CC(OC2CC(N(C)C)C(O)C(C)O2)c2c(cc3c(c2O)C(=O)c2c(O)cccc2C3=O)[C@@H]1C(=O)OC (stereo not given in full)
- TGI (MDA-N): 1.92 µM
- TGI (M14 melanoma): 2.07 µM

SMILES: COc1ccc(C2CC(c3cc(OC)c(OC)c(OC)c3)=NO2)cc1OCCCCOc1cc2c(cc1OC)C(=O)N1CCC[C@H]1C=N2 (stereo not given in full)
- GI50 (M14 melanoma): 1.73 µM
- TGI (M14 melanoma): 3.45 µM

SMILES: N#Cc1ccccc1NC(=O)/C(=N\N)C(C(=O)c1ccncc1)C1OC(=O)c2ccccc21 (stereo not given)
- TGI (M19-MEL melanoma): > 100 µM
- TGI (XF 498 CNS): > 100 µM
- TGI (KM20L2 colon): > 100 µM
- TGI (M14 melanoma): > 100 µM
- TGI (LXFL 529 NSCLC): > 100 µM

SMILES: COc1ccccc1/C=C(\C#N)c1ccccc1
- TGI (SNB-78 CNS): > 100 µM
- TGI (M19-MEL melanoma): > 100 µM
- TGI (DMS 273 small cell lung): 50 µM
- TGI (HOP-18 NSCLC): > 100 µM
- TGI (DLD-1 colon): > 100 µM
- TGI (DMS 114 small cell lung): 46.2 µM
- TGI (KM20L2 colon): > 100 µM
- TGI (M14 melanoma): 99.4 µM
- TGI (LXFL 529 NSCLC): > 100 µM

SMILES: Cc1ccc(NC(=O)c2cc3cc(N=Nc4ccc(Br)cc4)ccc3oc2=O)cc1
- TGI (SNB-78 CNS): > 100 µM
- TGI (DMS 273 small cell lung): > 100 µM
- TGI (XF 498 CNS): > 100 µM
- TGI (DLD-1 colon): > 100 µM
- TGI (DMS 114 small cell lung): > 100 µM

SMILES: Cc1ccc(S(=O)(=O)c2c(N)c3nc4ccccc4n3c3nc4ccccc4nc23)cc1
- TGI (M19-MEL melanoma): > 100 µM
- TGI (DMS 273 small cell lung): > 100 µM
- TGI (RXF-631 renal): > 100 µM
- TGI (DLD-1 colon): > 100 µM
- TGI (DMS 114 small cell lung): > 100 µM
- TGI (KM20L2 colon): > 100 µM
- TGI (M14 melanoma): > 100 µM
- TGI (LXFL 529 NSCLC): > 100 µM

SMILES: C=C1C(=O)O[C@H]2[C@H]1CC/C(CNC(=O)Cc1c[nH]c3ccccc13)=C\CC[C@@]1(C)O[C@@H]21
- GI50 (M14 melanoma): 0.641 µM
- TGI (M14 melanoma): 9.8 µM

SMILES: N=C(N)c1ccc(OCc2cccc(COc3ccc(C(=N)N)cc3)c2)cc1
- GI50 (M14 melanoma): 2.83 µM
- TGI (M14 melanoma): 7.35 µM

SMILES: COc1ccc2[nH]c(=O)c3c4ccccc4cn3c2c1
- GI50 (M14 melanoma): 0.494 µM
- TGI (M14 melanoma): 1.92 µM

SMILES: Nc1c(C(=O)c2cccc(CCCN3CCOCC3)c2)cnn1-c1ccc(F)cc1
- GI50 (M14 melanoma): > 25 µM
- TGI (M14 melanoma): > 25 µM

SMILES: COc1cc(C2c3[nH]c4ccccc4c3C[C@H]3COC(=O)N23)cc(OC)c1OC (stereo not given in full)
- TGI (MDA-N): 0.0492 µM
- TGI (M14 melanoma): 8.97 µM

SMILES: COC(=O)CCC(=O)C(=O)OC
- GI50 (M14 melanoma): 32300 µM

SMILES: CCOC(=O)c1ccc2[nH]c(-c3ccc(S(=O)(=O)F)cc3)cc(=O)c2c1
- TGI (MDA-N): > 100 µM
- TGI (M14 melanoma): > 100 µM

SMILES: O=C(Nc1ccc(Cl)cc1Cl)C1C(=O)N(c2ccc(Cl)cc2Cl)C(=O)/C1=N\Nc1ccc([N+](=O)[O-])cc1[N+](=O)[O-] (stereo not given)
- TGI (SNB-78 CNS): > 100 µM
- TGI (M19-MEL melanoma): > 100 µM
- TGI (DMS 273 small cell lung): > 100 µM
- TGI (RXF-631 renal): > 100 µM
- TGI (HOP-18 NSCLC): > 100 µM
- TGI (DLD-1 colon): > 100 µM
- TGI (DMS 114 small cell lung): 66.8 µM
- TGI (KM20L2 colon): > 100 µM
- TGI (M14 melanoma): > 100 µM
- TGI (LXFL 529 NSCLC): > 100 µM

SMILES: CCOC(=O)c1c2c(c(O)c3ccccc3c(O)n(Cc3ccc(OC)cc3)c1C)C(=O)C=CC2=O
- GI50 (M14 melanoma): > 100 µM
- TGI (M14 melanoma): > 100 µM

SMILES: CCSCC1CC(O)(c2ccccc2)C(c2ccccc2)C(c2ccc(Cl)cc2)O1 (stereo not given)
- GI50 (M14 melanoma): 1.81 µM
- TGI (M14 melanoma): 3.4 µM

SMILES: COC(=O)C1=C(c2ccc(OC)c(OC)c2)OC(c2ccc(OC)c(OC)c2)C1 (stereo not given)
- TGI (SNB-78 CNS): > 100 µM
- TGI (M19-MEL melanoma): > 100 µM
- TGI (DMS 273 small cell lung): > 100 µM
- TGI (XF 498 CNS): 65.2 µM
- TGI (HOP-18 NSCLC): > 100 µM
- TGI (DLD-1 colon): > 100 µM
- TGI (DMS 114 small cell lung): 77.5 µM
- TGI (KM20L2 colon): > 100 µM
- TGI (M14 melanoma): > 100 µM
- TGI (LXFL 529 NSCLC): 62.1 µM

SMILES: Cc1ccc([N+](=O)[O-])cc1NC(=O)Nc1cccc(F)c1
- GI50 (M14 melanoma): 22.1 µM
- TGI (M14 melanoma): > 100 µM

SMILES: C/C(CN1C(=O)c2ccccc2C1=O)=N\NS(=O)(=O)c1ccc(C)cc1
- TGI (SNB-78 CNS): > 100 µM
- TGI (M19-MEL melanoma): > 100 µM
- TGI (DMS 273 small cell lung): > 100 µM
- TGI (HOP-18 NSCLC): > 100 µM
- TGI (DLD-1 colon): > 100 µM
- TGI (KM20L2 colon): > 100 µM
- TGI (M14 melanoma): > 100 µM
- TGI (LXFL 529 NSCLC): > 100 µM

SMILES: C[C@@H]1COCCN1c1cc(C2([S@](C)(=N)=O)CC2)nc(-c2ccnc3[nH]ccc23)n1
- GI50 (M14 melanoma): 1.69 µM and 2.38 µM
- TGI (M14 melanoma): 9.96 µM and > 10 µM

SMILES: O=C1c2ccccc2-c2c1c1ccccc1c(=O)n2CCCCNCCCn1c2c(c3ccccc3c1=O)C(=O)c1ccccc1-2
- GI50 (M14 melanoma): 0.76 µM
- TGI (M14 melanoma): 4.18 µM

SMILES: CCCCON(OC(=O)c1ccccc1)C(=O)c1ccccc1
- GI50 (M14 melanoma): > 100 µM
- TGI (M14 melanoma): > 100 µM

Reference: PubChem BioAssay (NCI)
